Measurements as given in US20240239811A1, “5-(5-(PIPERIDIN-4-YL)THIENO[3,2-C]PYRAZOL-2-YL]INDAZOLE DERIVATIVES AND RELATED COMPOUNDS AS MODULATORS FOR SPLICING NUCLEIC ACIDS AND FOR THE T” (REMIX THERAPEUTICS INC., priority 2020, published 2024).

Experiments:
Assay type in all cases: cell-based
HTT mRNA = assay: Splicing assay (RT-qPCR) monitoring HTT splice variants, canonical (CJ) and alternative (AJ) junction; details: 50% response, A673 or K562 cell line, 24 hours; for IC50: decrease in CJ mRNA; for AC50: increase in AJ mRNA
Method in brief: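 A673 or K562 cells were treated 24 h with an 11-point 3-fold dilution series (top 10 uM, ≤0.25% DMSO) at 37 °C. HTT canonical- and alternative-junction mRNAs were quantified in lysates by one-step RT-qPCR. Values were normalized to PPIA (A673) or GAPDH/GUSB (K562).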

HTT CJ mRNA = assay: Gene panel canonical junction qPCR assay, HTT; details: Table 6, decrease in CJ mRNA, read-out: HTT IC50 (decrease in CJ mRNA levels)
Method in brief: (§1)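 A673 or K562 cells treated 24 h at 37° C with 11-point 3-fold dilutions, top 10 uM, DMSO ≤0.25%. CJ mRNA quantified by RT-qPCR with exon-junction-spanning probeset, ΔΔCt vs housekeeping gene (GAPDH, GUSB or PPIA) and DMSO control. IC50 from 4-parameter fit of percentage CJ decrease.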

Target C CJ mRNA = assay: Gene panel canonical junction qPCR assay, Target C; details: Table 6, decrease in CJ mRNA, read-out: Target C IC50 (decrease in CJ mRNA levels)
Method in brief: as §1

SMN2 CJ mRNA = assay: Gene panel canonical junction qPCR assay, SMN2; details: Table 6, decrease in CJ mRNA, read-out: SMN2 IC50 (decrease in CJ mRNA levels)
Method in brief: as §1

| Structure (SMILES) | IC50 (HTT mRNA) [nM] | IC50 (HTT CJ mRNA) [nM] | IC50 (Target C CJ mRNA) [nM] | IC50 (SMN2 CJ mRNA) [nM] | AC50 (HTT mRNA) [nM] |
| --- | --- | --- | --- | --- | --- |
| Cn1cc2c(O)c(-c3nc4sc(C5CCNCC5)cc4s3)ccc2n1 [Compound 231, 2-methyl-5-[5-(piperidin-4-yl)thieno[2,3-d][1,3]thiazol-2-yl]indazol-4-ol] | 1000 to 10000 | 1000 to 10000 | > 10000 | 100 to 1000 | 1000 to 10000 |
| Cn1cc2cc(-c3nc4sc(N5CCC6(CCN6)C5)cc4s3)cc(F)c2n1 (stereo not shown) [Compound 233, 5-(5-{1,6-diazaspiro[3.4]octan-6-yl}thieno[2,3-d][1,3]thiazol-2-yl)-7-fluoro-2-methylindazole] | 1000 to 10000 | 1000 to 10000 | 1000 to 10000 | < 100 | 1000 to 10000 |
| Cc1cn2nc(-c3nc4sc(C5CNC5)cc4s3)cc(C)c2n1 [Compound 235, 3-(2-{2,8-dimethylimidazo[1,2-b]pyridazin-6-yl}thieno[2,3-d] [1,3]thiazol-5-yl) azetidine] | 1000 to 10000 | 1000 to 10000 | 1000 to 10000 | 100 to 1000 | 1000 to 10000 |
| Cn1cc2cc(-c3nc4sc(C5(O)CCNCC5)cc4s3)cc(F)c2n1 [Compound 236, 4-[2-(7-fluoro-2-methylindazol-5-yl)thieno[2,3-d] [1,3]thiazol-5-yl] piperidin-4-ol] | 100 to 1000 | 100 to 1000 | 1000 to 10000 | 100 to 1000 | 1000 to 10000 |
| COc1c(-c2nc3sc(C4CCNCC4)cc3s2)cc(F)c2nn(C)cc12 [Compound 237, 7-fluoro-4-methoxy-2-methyl-5-[5-(piperidin-4-yl)thieno[2,3-d][1,3]thiazol-2-yl]indazole] | > 10000 | > 10000 | > 10000 | > 10000 | > 10000 |

Further lines, with some results ahead:

| IC50 (HTT mRNA) [nM] | IC50 (HTT CJ mRNA) [nM] | IC50 (Target C CJ mRNA) [nM] | IC50 (SMN2 CJ mRNA) [nM] | Structure (SMILES) | AC50 (HTT mRNA) [nM] |
| --- | --- | --- | --- | --- | --- |
| < 100 | < 100 | 100 to 1000 | < 100 | Cc1cc(-c2cc3cn(C4CCNCC4)nc3s2)cc2cn(C)nc12 [Compound 225] | < 100 |
| < 100 | < 100 | 100 to 1000 | < 100 | Cc1cn2cc(-c3cc4cn(C5CCNCC5)nc4s3)cc(Cl)c2n1 [Compound 226] | < 100 |
| < 100 | < 100 | 100 to 1000 | < 100 | Cc1cc(-c2nc3sc(C4CCNCC4)cc3s2)cc2cn(C)nc12 [Compound 238, 2,7-dimethyl-5-[5-(piperidin-4-yl)thieno[2,3-d][1,3]thiazol-2-yl]indazole] | < 100 |
